# Source: US7935182B2, “Solution for wood preservation” (priority 2004, dated 2011)
# Assay: copper leaching from wood impregnated with preservative solution
# Assay type: physicochemical
"copper leaching rates compared to diethanolamine or triethanolamine (wood impregnated with preservative solution, ethanolamine used as amine source)",SMILES,Copper leached in % (wood treated with copper based preservative solution)
–,O=S(=O)([O-])[O-].[Cu+2] [Copper (II) sulphate],45-55%^
Almost ten times lowest,NCCO [ethanolamine],–
